Measurements taken from US20250213601A1 (priority 2022, published 2025).
Several values for one entry are separate records, joined by “and”; a condition that tells them apart may be missing. Identical values can stand only once.

How the values were obtained:
[1] = system: Zika virus (Asian/Cook Islands); conditions: cited from earlier work
[2] = system: Hendra (Hendra virus/Australia/Horse); conditions: estimated; read-out: est. EC50; cited from earlier work
[3] = system: Adenovirus (HAdV-C5); conditions: cited from earlier work
[4] = system: Caco-2 cell line; experiment: Permeability through a monolayer of Caco-2 cells; conditions: bottom of Transwell well, 3 μM (per pure IVM) in HBSS on top
[5] = system: Dengue virus (NGC); conditions: cited from earlier work
[6] = system: Dengue virus (EDEN-4); conditions: cited from earlier work
[7] = system: Influenza VLPs (avian influenza A); conditions: 10 μM; cited from earlier work
[8] = Ivermectin concentration in the blood plasma of cattle after oral administration; assay type: in vivo; conditions: oral 600 μg/kg (per pure IVM)
Experimental: Cattle were divided into 2 groups of 1 animals each. Free Ivermectin (IVM) and compound of FORMULA I were orally administered to starving cattle. Blood samples were withdrawn from the jugular vein at appropriate time intervals after administration (0, 4, 20 h).
Fluorescence detection was set at an excitation and emission wavelength of 365 and 475 nm, respectively. The mobile phase consisted of acetonitrile, methanol and distilled water (50:45:5, v/v/v), running through the column at a flow rate of 1.5 ml/minute. The chromatographic analysis was operated at 25° C. Sample preparation (100 μl plasma) was done by a single stepprotein precipitation with acetonitrile, followed by derivatization with 100 μl of N-methylimidazole solution in acetonitrile (1:1, v/v) and 150 μl of trifluoroacetic anhydrous solution in acetonitrile (1:2, v/v). Calibration curve over the concentration range of 20-8,000 ng/ml plasma was linear with correlation coefficient better than 0.995.
All the blood samples were centrifuged at 3000 rpm for 15 min to obtain […]. Cattle plasma samples (100 μL each) were placed in 1.5 mL Eppendorf tubes, and then the samples underwent protein precipitation. The samples were vortexed for 1 min and centrifuged at 13,400 rpm for 10 min 20 μL of the supernatant was injected into the HPLC.

[9] = system: Syrian hamsters; experiment: Oral toxicity of solid dispersion; assay type: in vivo; conditions: per pure ivermectin, FORMULA I compound per Example 1 No 2 (apple pectin 1:5)
[10] = system: West Nile virus (MRM61C); conditions: cited from earlier work
[11] = standard tablet form, for 5 days; cited from earlier work
[12] = system: Pseudorabies virus; conditions: estimated; read-out: est. EC50; cited from earlier work
[13] = system: Dengue virus (EDEN-3); conditions: cited from earlier work
[14] = system: Dengue virus (EDEN-2); conditions: cited from earlier work
[15] = system: SARS-CoV-2; conditions: in vitro, inhibition of replication; cited from earlier work
[16] = system: West Nile virus (NY99); conditions: cited from earlier work

SMILES: CCC(C)C1OC2(CCC1C)CC1CC(CC=C(C)C(OC3CC(OC)C(OC4CC(OC)C(O)C(C)O4)C(C)O3)C(C)C=CC=C3COC4C(O)C(C)=CC(C(=O)O1)C34O)O2 (centres unmarked) [ivermectin, Ivermectin]
- EC50 [1]: 1.3 µM and 1.6 µM
- EC50 [2]: ~2 µM
- EC50 [3]: 2.5 µM
- Concentrartion of IVM ([4]; 20 min, FORMULA I compound per Example 1 No 2 (apple pectin 1:5)): 0.05 µg/mL
- Concentrartion of IVM ([4]; 40 min, FORMULA I compound per Example 1 No 2): 0.09 µg/mL
- Concentrartion of IVM ([4]; 60 min, FORMULA I compound per Example 1 No 2): 0.15 µg/mL
- Concentrartion of IVM ([4]; 80 min, FORMULA I compound per Example 1 No 2): 0.19 µg/mL
- Concentrartion of IVM ([4]; 100 min, FORMULA I compound per Example 1 No 2): 0.21 µg/mL
- Concentrartion of IVM ([4]; 120 min, FORMULA I compound per Example 1 No 2): 0.25 µg/mL
- Inhibition ([5]; 50 μM): total inhibition
- EC50 [5]: 0.4 µM and 0.6 µM
- EC50 [6]: 1.9 µM
- Inhibition [7]: 10 μM total inhibition
- C1, 0 h (ivermectin concentration in plasma) ([8]; 0 h, FORMULA I compound per Example 1 No 1 (polyvinylpyrrolidone 1:10), IVM = milled free ivermectin): 0 ± 0.15 ng/mL
- C2, 4 h (ivermectin concentration in plasma) ([8]; 4 h, FORMULA I compound per Example 1 No 1): 307.3 ± 46.1 ng/mL
- C3, 20 h (ivermectin concentration in plasma) ([8]; 20 h, FORMULA I compound per Example 1 No 1): 104.4 ± 15.6 ng/mL
- Cmax ([8]; FORMULA I compound per Example 1 No 1): 0.35 ± 0.05 µM
- LD50 [9]: 62 mg/kg
- EC50 [10]: 1 µM and 0.5 µM
- lung Cmax [11]: 0.4 to 0.9 µM
- EC50 [12]: ~0.8 µM
- EC50 [13]: 1.7 µM
- EC50 [14]: 2.1 µM and 1.7 µM
- EC50 [15]: 2.4 µM and 2.2 µM and 2.8 µM
- EC90 [15]: 5 µM
- EC50 [16]: 4 µM
